# Measurements taken from article PMC9504178 (Viruses, 2022).
# Experiments:
# [1] = test system: A/Netherlands/241/11 (NL11); assay type: cell-based, influenza A virus
# NL09 or NL11 strain = assay type: cell-based, influenza A virus
# NL09 and NL11 = assay type: cell-based, influenza A virus
# [2] = test system: IAV laboratory strains (PR8 and WSN) and pandemic H1N1 (CA09); design: method as in earlier work; details: A549 cells, AF 1μM, 15 hpi; cited from earlier work
# NL09 or NL11 = assay type: cell-based, influenza A virus
# NL09 and NL11 strains = assay type: cell-based, influenza A virus
# [3] = test system: human precision-cut lung slices (hPCLSs); test: LDH-Glo cytotoxicity assay in hPCLSs; details: [10×]max: AF 50 μM, DA 100 μM, RG 25 μM; relative to Triton-X 100 positive control, 20% cut-off
# NL11 (H3N2) = assay type: cell-based, influenza A virus
# [4] = test system: A/Netherlands/602/09 (NL09); assay type: cell-based, influenza A virus
# B-Raf = details: no reference given; cited from earlier work
# c-Raf = details: cited from earlier work; for higher selectivity for c-Raf than vemurafenib: no reference given
# [5] = test system: A(H1N1)pdm09 A/Netherlands/602/09 (NL09); assay type: cell-based, influenza A virus
# NL09 = assay type: cell-based, influenza A virus
# IAV = details: single donor; cited from earlier work
SMILES,"relative infectivity, NL11 [1] [%]",effect on viral entry (NP staining) (NL09 or NL11 strain),highest viral titer reduction at MOI = 0.1 (NL09 and NL11),time dependence of effect on virus replication (NL09 and NL11),significance of viral titer reduction in infected hPCLSs (NL09 or NL11),time at which inhibition of virus replication in hPCLSs was observed (NL09 or NL11) [hpi],"effect on viral titers, NL11 compared with NL09 (NL09 and NL11 strains)",reduction in viral titers (NL09 and NL11 strains),reduction of the titers of both viruses (NL09 and NL11 strains),"relative infectivity, NL09 [4] [%]",other results
"CN(C)C/C=C/C(=O)Nc1cc2c(Nc3ccc(F)c(Cl)c3)ncnc2cc1O[C@H]1CCOC1 [AF, afatinib]",65,inhibited,1000 fold,greater effect on virus replication at the early time points (24 hpi),consistently significant after 48 hpi,≤ 12,significantly stronger in NL11-infected cells,100- to 3000 fold,,,"relative cell viability over mock-infected treated controls (A549 cells): only marginally decreased the relative viability; effect on viral replication [2]: 2- to 5 fold; cytotoxicity (LDH release) in hPCLSs at [10×]max [3]: > 20%; % Luminescence (relative to untreated / normalized to GFP), NL11 infection (NL11 (H3N2)): 50%"
"Cn1cc(-c2cc3c(N4CCN(c5ncc([C@@](C)(N)c6ccc(F)cc6)cn5)CC4)ncnn3c2)cn1 [AV, avapritinib]",81,no obvious effects on viral entry,10 fold,,,≤ 12,,,10- to 30 fold,80,
"CC(C)(C)c1nc(-c2cccc(NS(=O)(=O)c3c(F)cccc3F)c2F)c(-c2ccnc(N)n2)s1 [DA, dabrafenib]",126,inhibited,100 fold,,consistently significant after 48 hpi,≤ 12,significantly stronger in NL11-infected cells,10- to 100 fold,,117,higher selectivity for B-Raf than vemurafenib (B-Raf): 10- to 100 fold; higher selectivity for c-Raf than vemurafenib (c-Raf): 10 fold
"O=C(Nc1cnn2ccc(N3CCC[C@@H]3c3cc(F)ccc3F)nc12)N1CC[C@H](O)C1 [LA, larotrectinib]",91,no obvious effects on viral entry,100 fold,greater effect on virus replication at the early time points (24 hpi),,≥ 72,,,10- to 30 fold,60,NL09 viral titer reduction [5]: ~ 9 fold; relative intracellular to extracellular (I/E) viral RNA Ct ratio (egress) (NL09): did not observe significant differences in any single step of viral replication
"CCOc1cc2ncc(C#N)c(Nc3ccc(OCc4ccccn4)c(Cl)c3)c2cc1NC(=O)/C=C/CN(C)C [NE, neratinib]",92,inhibited,100 fold,greater effect on virus replication at the early time points (24 hpi),,≤ 12,,40- to 50 fold,10- to 30 fold,70,antiviral effect in hPCLSs compared to A549 cells (NL09 or NL11): more potent antiviral effect
"CNC(=O)c1cc(Oc2ccc(NC(=O)Nc3ccc(Cl)c(C(F)(F)F)c3)c(F)c2)ccn1 [RG, regorafenib]",80,inhibited,"10,000 fold",greater effect on virus replication at the early time points (24 hpi),consistently significant after 48 hpi,≤ 12,significantly stronger in NL11-infected cells,10- to 1000 fold,,75,antiviral effect in hPCLSs compared to A549 cells (NL09 or NL11): more potent antiviral effect; potency in primary bronchial cells vs A549 cells (IAV): less potent in primary bronchial cells than in A549 cells; higher selectivity for B-Raf than vemurafenib (B-Raf): 10- to 100 fold; selectivity for c-Raf relative to B-Raf (c-Raf): ~ 10 fold; higher selectivity for c-Raf than vemurafenib (c-Raf): 10 fold
"Cc1cc(Nc2ncnc3ccc(NC4=NC(C)(C)CO4)cc23)ccc1Oc1ccn2ncnc2c1 [TU, tucatinib]",100,no obvious effects on viral entry,10 fold,,,≤ 12,,,10- to 30 fold,86,
